# Measured values taken from patent publication US9573907B2, “2, 4-pyrimidine derivatives and use thereof” (SNU R&DB FOUNDATION, priority 2009, dated 2017).
# Assays:
# gp96 M738L = target: T1, gp96 M738L (Homo sapiens, UniProt P14625, M742L); assay: Surface plasmon resonance, GPM1 binding to gp96 mutant M738L
# T1 construct: made in house; host or cells: Escherichia coli BL21 (DE3)
# Method: Human gp96 was expressed as His tag fusion protein in Escherichia coli BL21 (DE3) and purified by nickel affinity chromatography. His-tagged human gp96 was immobilized onto CM5 sensor chips using standard amine coupling2. PBS was used as a running buffer. The carboxymethyl dextran surface within one side of the flow cell was activated with a 7-min injection of a 1:1 ratio of 0.4M EDC and 0.1M NHS. The protein was coupled to the surface with a 7-min injection of gp96 diluted in 10 mM sodium acetate, pH 3.7. Remaining activated groups were blocked with a 7-min injection of 1.0M ethanolamine, pH 8.5. GPM1 compound was dissolved directly in the PBS running buffer containing 1% DMSO and injected at a flow rate of 20 μl/min at 25° C. and the binding was determined by the change in resonance units (RU). The compound concentration varied from 10 nM to 25 μM and each concentration was tested at least three times. All of the bound complexes dissociated back to baseline within a reasonable time frame. Therefore, no regeneration was required. Sensorgram was processed by subtracting the binding response recorded from the control surface, followed by subtracting an average of the buffer blank injections from the reaction spot. To determine kinetic rate constants, all data sets were fit to a simple 1:1 binding with drifting baseline model using BIAevaluation program.
# The present inventors compared the dose-dependent effect of GPM1 and NC1 on the interaction of gp96 and AIMP1 using ELISA. […] The present inventors monitored the binding kinetics of GPM1 to gp96 or AIMP1 by surface plasmon resonance (SPR) using BIAcore 3000. […] To further define the GPM1 binding region of gp96 (Han, J. M., Park, S. G., Liu, B., Park, B. J., Kim, J. Y., Jin, C. H., Song, Y. W., Li, Z. & Kim, S. Am. J. Pathol. 170, 2042-2054 (2007)), the present inventors introduced point mutations at L707, V706, V712, L713, F714, Y731 and M738 that are located within AIMP1 binding region of gp96 and monitored how the mutations at these sites would affect the binding of GPM1 to gp96 using SPR method.
# [1] = test system: cell surface gp96 of splenocytes isolated from C57BL/6 mice; assay: Flow cytometry of cell surface gp96 on splenocytes; type: cell-based; settings: 10 μM, 24 h
# Method: (§1) FIGS. 1 to 9 represent suppression of cell surface gp96 by GPM1 reduces DC maturation and B220^+ population in gp96tm transgenic mice. (FIG. 1) Chemical structure of GPM1 (Formula 2) and negative control (NC1, Formula 16) used in this study. (FIG. 2) The dose-dependent effect of GPM1 or NC1 on the AIMP1-gp96 interaction using ELISA method as described. The indicated concentrations of the two compounds and biotin-conjugated murine gp96 were added to AIMP1 coated on the surface of microtiter wells, and gp96 bound to AIMP1 was detected with strepavidin-conjugated peroxidase. (FIG. 3) The binding of GPM1 to gp96 was examined by surface plasmon resonance (SPR). GPM1 at the indicated concentrations was injected to immobilized gp96 and the binding was measured using Biacore 3000. The response data were processed using data from a reference surface and buffer injections. Each concentration was tested in triplicate. (FIG. 4) RAW24.7 cells were treated with 10 μM GPM1 for 24 h. Cell lysates were immunoprecipitated with control IgG or anti-gp96 antibody and the immunoprecipitated proteins were immunoblotted with anti-KDELR1, antiAIMP1 and gp96 antibodies. WCL means whole cell lysate. […] TNFα secreted from BMDCs was quantified by ELISA. […]
# bone marrow-derived DCs = assay: DC maturation assay (secreted TNFα); type: cell-based, mice; settings: AIMP1−/− splenocytes pretreated 10 μM, 24 h; compared to NC1
# Method: as §1
# T1 sequence (P14625 22-803 M742L): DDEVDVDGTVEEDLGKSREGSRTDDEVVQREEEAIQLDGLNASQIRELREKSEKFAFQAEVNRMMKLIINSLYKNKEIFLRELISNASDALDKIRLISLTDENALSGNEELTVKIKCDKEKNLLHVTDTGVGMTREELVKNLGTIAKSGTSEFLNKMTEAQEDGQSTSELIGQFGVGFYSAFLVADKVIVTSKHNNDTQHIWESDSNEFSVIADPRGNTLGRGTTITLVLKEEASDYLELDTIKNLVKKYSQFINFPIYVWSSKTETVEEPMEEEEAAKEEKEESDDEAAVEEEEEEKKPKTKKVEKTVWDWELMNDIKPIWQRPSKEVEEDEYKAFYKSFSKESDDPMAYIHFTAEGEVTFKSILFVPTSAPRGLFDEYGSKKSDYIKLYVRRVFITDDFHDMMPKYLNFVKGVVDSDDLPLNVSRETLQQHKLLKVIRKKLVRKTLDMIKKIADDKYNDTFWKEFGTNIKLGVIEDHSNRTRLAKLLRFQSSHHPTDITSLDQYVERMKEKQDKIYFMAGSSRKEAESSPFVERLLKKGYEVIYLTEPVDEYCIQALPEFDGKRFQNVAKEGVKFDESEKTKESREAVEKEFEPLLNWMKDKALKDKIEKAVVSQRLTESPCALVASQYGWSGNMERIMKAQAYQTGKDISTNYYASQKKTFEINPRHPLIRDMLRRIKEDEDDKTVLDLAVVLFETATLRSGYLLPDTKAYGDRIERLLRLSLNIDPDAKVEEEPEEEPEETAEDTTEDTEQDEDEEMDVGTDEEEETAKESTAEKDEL
smiles,measurement,setting,value
"COC(=O)[C@@H](Oc1nc(OC)cc(OC)n1)C(C)C [GPM1, (S)-methyl 2-(4,6-dimethoxypyrimidin-2-yloxy)-3-methylbutanoate]",Kd,gp96 M738L,210 nM
same,koff (dissociation rate constant),gp96 M738L,0.0132 s⁻¹
same,kon,gp96 M738L; read-out: Ka,63000 M⁻¹ s⁻¹
same,surface gp96 of mouse splenocytes,[1],decreased
same,amount of secreted TNF-α,bone marrow-derived DCs,significantly reduced
